How the values were obtained:
VHL complex = biological target: T1, VHL complex (Homo sapiens, UniProt P40337); assay: Inhibition of HIF-1α peptide binding to the VHL complex using HTRF (Table 3); conditions: mean ± S.E.M. of three replications; read-out: VHL-HIFa peptide IC50
T1 construct: purchased R&D systems E3-655-025
Experimental: Assays contained 2 nM of HIS-VHL complex (R&D systems, E3-655-025), 2 nM of biotin-hydroxyproline-HIF1α peptide (Biotin-[…] (SEQ ID NO: 2), X=hydroxyproline), 0.3 nM anti-HIS-Tb HTRF donor antibody and 4 nM streptavidin-d2 HTRF acceptor (PerkinElmer) in a final volume of 10 μL of 25 mM HEPES, pH 7.4, 150 mM NaCl, 5 mM DTT, 0.005% Tween20 in white low volume 384-well plates. Both HIS-VHL complex and biotin-HIF1α peptide were pre-incubated with their respective HTRF antibodies for 15 min. Test compounds were solubilized at 10 mM in DMSO and concentration series was added to the assay plate using the Echo 650 acoustic liquid handling system by direct dilution. The final amount of DMSO added to the assay was 100 nL […]. Compounds were pre-incubated with HIS-VHL complex before the addition of the biotin-HIF1α peptide. After a 2 hr incubation, the HTRF signal was measured using the ClarioStar plate reader (BMG Labtech). […] IC50 values were determined from nonlinear regression fits of a data to a four parameter dose-response equation using XLFit (IDBS). Data are the means±S.E.M. of three replications. The data is described in Table 3 above.

[1] = test system: p53-null mouse sarcoma cells; assay: Murine Mdm2+/+ p53-null sarcoma cells, Western blot and MTT; type: cell-based; conditions: increasing concentrations, MTT assay, 48 hrs
MDM2-p53 = MDM2-p53 (Homo sapiens, UniProt Q00987); assay: Inhibition of MDM2 binding to p53 using HTRF (Table 3); conditions: mean ± S.E.M. of three replications
Sequence of MDM2-p53 (Q00987 whole entry): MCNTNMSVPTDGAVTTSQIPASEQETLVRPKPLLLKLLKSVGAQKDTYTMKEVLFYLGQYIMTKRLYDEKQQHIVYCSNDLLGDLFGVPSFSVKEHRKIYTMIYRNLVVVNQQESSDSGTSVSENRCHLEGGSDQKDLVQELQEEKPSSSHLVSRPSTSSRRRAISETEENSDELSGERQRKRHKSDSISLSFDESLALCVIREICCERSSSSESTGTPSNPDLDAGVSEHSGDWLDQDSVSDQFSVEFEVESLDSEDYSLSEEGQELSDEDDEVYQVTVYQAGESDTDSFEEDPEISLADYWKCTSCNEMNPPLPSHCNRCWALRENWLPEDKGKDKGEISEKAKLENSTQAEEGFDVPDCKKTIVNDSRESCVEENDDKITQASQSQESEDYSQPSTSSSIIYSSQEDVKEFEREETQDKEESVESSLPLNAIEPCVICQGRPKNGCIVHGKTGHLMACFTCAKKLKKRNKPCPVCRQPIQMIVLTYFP

TAp73 = assay: Western blotting for TAp73 in TNBC cell lines; type: cell-based, human; conditions: five TNBC cell lines
Experimental: FIGS. 28A-28L show TAp73 is activated by the MDM2-PROTAC YX-02-030 and mediates apoptosis of p53-inactivated TNBC cells. A-C, RNA-seq (triplicates) was performed on MDA-MB-231 cells treated with the MDM2-PROTAC YX-02-030 (6 μM, 16 hr) or DMSO vehicle control or expressing MDM2 shRNA or non-targeting control shRNA (48 hr). A, Pathway analysis using Hallmark gene signatures. B, Heatmap of p53 family target genes of individual samples (3 each). C, Spearman's correlation of differentially expressed p53 family target genes between PROTAC-treated relative to DMSO vehicle control and MDM2 shRNA relative to non-targeting shRNA control; Spearman's correlation coefficient (p) and P-value indicated. D, qRT-PCR analysis (triplicate, 6 μM, 16 hr) to validate RNA-seq results. […] I, ChIP for TAp73 was performed with MDA-MB-231 cells following treatment with the MDM2-PROTAC YX-02-030 (6 μM, 16 hr) or DMSO vehicle control, and enrichment of TAp73 (triplicate; first normalized to input DNA then IgG control) was determined at the loci indicated. J and K, After 48 hr, MDA-MB-231 cells expressing two independent TAp73 shRNA or non-targeting shRNA (shNT) control were treated with MDM2-PROTAC YX-02-030 or DMSO vehicle control (6 μM, 16 hr). p53/TAp73 target genes were evaluated by Western blotting (J) and qRT-PCR (K, triplicate). […]

T1 sequence (P40337 whole entry): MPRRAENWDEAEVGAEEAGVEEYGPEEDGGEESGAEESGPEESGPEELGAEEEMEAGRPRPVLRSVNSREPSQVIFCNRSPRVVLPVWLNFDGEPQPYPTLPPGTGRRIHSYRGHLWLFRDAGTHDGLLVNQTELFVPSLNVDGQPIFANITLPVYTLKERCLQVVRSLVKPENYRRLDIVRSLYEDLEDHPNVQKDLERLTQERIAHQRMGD
T1 sequence (Q15370 whole entry partner): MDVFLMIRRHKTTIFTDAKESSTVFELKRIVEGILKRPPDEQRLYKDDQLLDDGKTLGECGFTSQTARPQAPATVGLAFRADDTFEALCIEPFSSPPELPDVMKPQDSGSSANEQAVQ
T1 sequence (Q15369 whole entry partner): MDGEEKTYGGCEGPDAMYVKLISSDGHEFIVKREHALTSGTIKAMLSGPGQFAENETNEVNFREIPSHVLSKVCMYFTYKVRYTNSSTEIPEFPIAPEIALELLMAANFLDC
T1 sequence (Q13617 whole entry partner): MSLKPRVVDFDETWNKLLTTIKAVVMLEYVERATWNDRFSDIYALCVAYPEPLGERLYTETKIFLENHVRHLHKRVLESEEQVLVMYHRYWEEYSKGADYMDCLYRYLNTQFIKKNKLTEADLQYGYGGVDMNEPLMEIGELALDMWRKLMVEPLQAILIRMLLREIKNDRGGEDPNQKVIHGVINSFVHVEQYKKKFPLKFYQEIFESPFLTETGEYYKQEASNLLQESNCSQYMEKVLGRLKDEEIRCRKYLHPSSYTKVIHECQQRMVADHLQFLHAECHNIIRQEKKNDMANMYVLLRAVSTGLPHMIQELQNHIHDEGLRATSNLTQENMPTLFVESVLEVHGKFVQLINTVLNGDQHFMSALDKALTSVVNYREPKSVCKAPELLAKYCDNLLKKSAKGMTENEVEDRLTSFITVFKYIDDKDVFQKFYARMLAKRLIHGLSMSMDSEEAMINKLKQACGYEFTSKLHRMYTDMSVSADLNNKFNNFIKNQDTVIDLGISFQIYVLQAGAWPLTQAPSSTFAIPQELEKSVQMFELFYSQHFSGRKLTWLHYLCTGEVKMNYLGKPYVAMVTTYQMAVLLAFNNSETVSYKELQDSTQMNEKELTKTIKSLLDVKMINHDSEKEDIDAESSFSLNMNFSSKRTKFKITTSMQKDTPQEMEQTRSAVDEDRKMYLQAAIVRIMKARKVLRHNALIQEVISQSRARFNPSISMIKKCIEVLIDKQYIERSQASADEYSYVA
T1 sequence (P62877 whole entry partner): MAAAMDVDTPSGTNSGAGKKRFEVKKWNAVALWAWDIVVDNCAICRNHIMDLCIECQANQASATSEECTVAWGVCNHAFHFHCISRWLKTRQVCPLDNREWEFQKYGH

IC50 (VHL complex) [µM] | IC50 (MDM2-p53) [µM] | SMILES | killing of p53-null sarcoma cells [1] | TAp73 protein level (TAp73)
> 10 | 0.011 ± 0.0013 | CCOc1cc(C(C)(C)C)ccc1C1=N[C@@](C)(c2ccc(Cl)cc2)[C@@](C)(c2ccc(Cl)cc2)N1C(=O)N1CCN(CC(=O)O)CC1 (racemic) [YX-02-023, 2-(4-((4S,5R)-2-(4-(tert-butyl)-2-ethoxyphenyl)-4,5-bis(4-chlorophenyl)-4,5-dimethyl-4,5-dihydro-1H-imidazole-1-carbonyl)piperazin-1-yl)acetic acid] | not | –
– | – | CCOc1cc(C(C)(C)C)ccc1C1=NC(C)(c2ccc(Cl)cc2)C(C)(c2ccc(Cl)cc2)N1C(=O)N1CCN(CC(=O)NCCOCCOCCOCC(=O)N[C@H](C(=O)N2C[C@H](O)C[C@H]2C(=O)NCc2ccc(-c3scnc3C)cc2)C(C)(C)C)CC1 (stereo in doubt) [YX-02-030, (2S,4R)-1-((S)-2-(tert-butyl)-17-(4-((4S,5R)-2-(4-(tert-butyl)-2-ethoxyphenyl)-4,5-bis(4-chlorophenyl)-4,5-dimethyl-4,5-dihydro-1H-imidazole-1-carbonyl)piperazin-1-yl)-4,16-dioxo-6,9,12-trioxa-3,15-diazaheptadecanoyl)-4-hydroxy-N-(4-(4-methylthiazol-5-yl)benzyl)pyrrolidine-2-carboxamide] | – | levels of TAp73 protein increased

Source: patent US20260053931A1, “MDM2 TARGETING PROTACS” (THE WISTAR INSTITUTE OF ANATOMY AND BIOLOGY, priority 2023, published 2026)
